Results from US11839213B2, “Antimicrobial, disinfecting, and wound healing compositions and methods for producing and using the same” (Armis Biopharma, Inc., priority 2008, dated 2023).

How the values were obtained:
C. difficile = test: ASTM E2197-02 disk carrier test against C. difficile spores; format: cell-based; settings: C. difficile spores with soil load on stainless steel disks, 10 minutes contact
Protocol: Pyruvic peracid (PPA) and Peroxy α-ketobutyric acid (POKBA) were tested against C. difficile using the ASTM E2197-02 testing method and the results are shown on FIG. 3. […] The method of testing these molecules against C. difficile was designed to evaluate the ability of liquid chemical germicides to inactivate vegetative bacteria, viruses, fungi, mycobacteria and bacterial spores in the presence of a soil load on disk carriers that represent environmental surfaces and medical devices.
This test method is a standard test promulgated by ASTM Committee E35 on Pesticides and Subcommittee E35.15 on Antimicrobial Agents. The stringency in the test is provided by the use of a soil load, the microtopography of the carrier surface and the small ratio of disinfectant to surface area (1:5) typical for many disinfectant applications. Thus the formulation under test is presented with a reasonable challenge while allowing for efficient recovery of the test organisms from the inoculated carriers with or without their exposure to the test formulation.
The metal disks used in the basic test are also compatible with a wide variety of germicidal actives and most surfaces in consumer based product manufacturing and health care facilities. The design of the metal discs makes it possible to place onto each precisely measured volume of the test organism (28 μL) as well as the test formulation (125 μL). […]

MRSA = test: Spray test, log reduction of MRSA; format: cell-based; settings: derived from 10% pyruvate and 3% H2O2; no growth in the broth, complete elimination assumed
Description: A representative list of the organisms tested include, but are not limited to, Bacillus subtilis, Bacillus atrophaeus, Bacillus thuringiensis, Staphylococcus aureus, Salmonella cholerasuis, Pseudomonas aeruginosa, Aspergillus niger, and Trichophyton mentagrophytes. The following exemplifies one procedure derived from disinfectant test methods found in guidelines of the Association of Official Analytical Chemists (AOAC) to meet “log reduction criteria” established by the U.S. Environmental Protection Agency (EPA) and U.S. FDA for certain applications: (1) A tube of the sample-disinfectant is placed into a waterbath for temperature control and allowed to equilibrate; (2) Once the tube has reached temperature, it is inoculated to achieve a concentration of approximately 10^6 CFU/mL; (3) At selected time points (generally five points are used including zero) aliquots are removed and placed into a neutralizer blank; (4) Dilutions of the neutralizer are made and selected dilutions plated onto agar; (5) Colonies are enumerated and log reductions are calculated.
In order to obtain observable significant reductions (on the order of 106) of surface bacteria, a high number of viable CFU/in^2 must be available for treatment on the surface to be disinfected. […]
The effectiveness of treatments was evaluated by enumeration of the surviving bacteria on the slide. […]

SMILES: CCC(=O)C(=O)OO [POKBA, Peroxy-alpha-Ketobutyric Acid]
- activity against C. difficile (comparison, FIG. 3) (C. difficile): significantly more active compared to PPA

SMILES: CC(=O)C(=O)OO [peroxy pyruvic acid]
- log reduction of the MRSA control (MRSA): approximately 6 logs
